Structures are written as SMILES.

The compound `*C(=O)Nc1ccc(Oc2ccc(-c3ccc(Oc4ccc(NC(=O)c5ccc6c(c5)C(=O)N(c5ccc(Oc7ccc(C(C)(C)c8ccc(Oc9ccc(N%10C(=O)c%11ccc(*)cc%11C%10=O)cc9)cc8)cc7)cc5)C6=O)cc4)cc3)cc2)cc1` (repeat unit) came in with a glass transition temperature of 283.00 °C.
Compound `*C(=O)Nc1ccc(Oc2ccc(C(C)(C)c3ccc(Oc4ccc(NC(=O)c5ccc6c(c5)C(=O)N(c5ccc(Oc7cccc(N8C(=O)c9ccc(*)cc9C8=O)c7)cc5)C6=O)cc4)cc3)cc2)cc1` (repeat unit) displayed a glass transition temperature of 207.00 °C.
Under `*C(=O)Nc1ccc(Oc2ccccc2-c2ccccc2Oc2ccc(NC(=O)c3ccc4c(c3)C(=O)N(c3ccc(Oc5ccc(C(C)(C)c6ccc(Oc7ccc(N8C(=O)c9ccc(*)cc9C8=O)cc7)cc6)cc5)cc3)C4=O)cc2)cc1` (repeat unit) stands 229.00 °C.
As for `*C(=O)c1ccc2c(c1)C(=O)N(c1ccc(C(=O)c3cccc(C(=O)c4ccc(N5C(=O)c6ccc(*)cc6C5=O)cc4)c3)cc1)C2=O` (repeat unit), the glass transition temperature came out at 276.00 °C.
`*CCCCCCN1C(=O)C(=O)N(c2ccc(Oc3ccc(N4C(=O)C(=O)N(*)C4=O)cc3)cc2)C1=O` (repeat unit) gave a glass transition temperature of 172.00 °C.
The compound `*Cc1cccc(CNC(=O)/C=C(\C)C(=O)N*)c1` (repeat unit) had a glass transition temperature of 135.00 °C.
Under `*Oc1ccc(C(=O)c2cccc(-c3cccc(C(=O)c4ccc(*)cc4)c3)c2)cc1` (repeat unit) stands 123.00 °C; under `*Oc1ccc(N(c2ccc(OC)cc2)c2ccc3ccc(N(c4ccc(*)cc4)c4ccc(OC)cc4)cc3c2)cc1` (repeat unit), 197.00 °C.
To `*Oc1ccc(N(c2ccc(OCCCCCC)cc2)c2ccc(-c3ccc(N(c4ccc(*)cc4)c4ccc(OCCCCCC)cc4)cc3)cc2)cc1` (repeat unit) belongs 105.00 °C; to `*Oc1ccc(NC(=O)c2ccc(Oc3ccc(C(C)(C)c4cccc(C(C)(C)c5ccc(Oc6ccc(C(=O)Nc7ccc(Oc8ccc(C(C)(C)c9ccc(*)cc9)cc8)cc7)cc6)cc5)c4)cc3)cc2)cc1` (repeat unit), 147.00 °C; to `*Oc1ccc(Oc2ccc(C(=O)c3cccc(-c4cccc(C(=O)c5ccc(*)cc5)c4)c3)cc2)cc1` (repeat unit), 154.00 °C.
As to `*Oc1ccc(Oc2ccc(Oc3ccc(C(C)(C)c4ccc(*)cc4)cc3)cc2)cc1` (repeat unit), the glass transition temperature was found to be 122.00 °C.
In turn, `*Oc1ccc(Oc2ccc(P(C)(=O)c3ccc(*)cc3)cc2)cc1` (repeat unit) gave a glass transition temperature of 213.00 °C.
On to `*Oc1ccc(Oc2ccc(S(=O)(=O)c3ccc(-c4ccc(S(=O)(=O)c5ccc(*)cc5)cc4)cc3)cc2)cc1` (repeat unit), for which the glass transition temperature stood at 251.00 °C.
Regarding `*Oc1ccc(P(=O)(c2ccccc2)c2ccc(*)cc2)cc1` (repeat unit), the glass transition temperature came to 240.00 °C.
As to `*Oc1ccc(P(C)(=O)c2ccc(*)cc2)cc1` (repeat unit), the glass transition temperature came to 238.00 °C.
As for `*Oc1ccc(P(C)(=O)c2ccc(Oc3ccc(C(c4ccc(*)cc4)(C(F)(F)F)C(F)(F)F)cc3)cc2)cc1` (repeat unit), the glass transition temperature was found to be 208.00 °C.
The compound `*Oc1ccc(P(C)(=O)c2ccc(Oc3ccc(C(c4ccccc4)(c4ccc(*)cc4)C(F)(F)F)cc3)cc2)cc1` (repeat unit) yielded a glass transition temperature of 229.00 °C.
To `*Oc1ccc(P(C)(=O)c2ccc(Oc3ccc(P(=O)(c4ccccc4)c4ccc(*)cc4)cc3)cc2)cc1` (repeat unit) belongs 238.00 °C.
`*Oc1ccc(S(=O)(=O)c2ccc(Oc3ccc(S(=O)(=O)c4ccc(-c5ccc(-c6ccc(S(=O)(=O)c7ccc(*)cc7)cc6)cc5)cc4)cc3)cc2)cc1` (repeat unit) gave a glass transition temperature of 281.00 °C.
To `*Oc1ccc2ccc(Oc3ccc(C(=O)Nc4ccc(Oc5ccc(C(C)(C)c6ccc(Oc7ccc(NC(=O)c8ccc(*)cc8)cc7)cc6)cc5)cc4)cc3)cc2c1` (repeat unit) belongs 143.00 °C; to `*Oc1ccc2ccc(Oc3ccc(C(=O)Nc4ccc(Oc5ccc(C(C)(c6ccccc6)c6ccc(Oc7ccc(NC(=O)c8ccc(*)cc8)cc7)cc6)cc5)cc4)cc3)cc2c1` (repeat unit), 177.00 °C; to `*c1ccc(CCc2ccccc2N2C(=O)C(=O)N(c3ccc(Oc4ccc(N5C(=O)C(=O)N(*)C5=O)cc4)cc3)C2=O)cc1` (repeat unit), 208.00 °C.
`*c1ccc(Oc2ccc(C(=O)c3cccc(C(=O)c4ccc(Oc5ccc(-c6cc(*)n(-c7ccccc7)n6)cc5)cc4)c3)cc2)cc1` (repeat unit) displayed a glass transition temperature of 190.00 °C.
Under `*c1ccc(Oc2ccc(C(C)(C)c3ccc(Oc4ccc(N5C(=O)C6CCC(C7CCC8C(=O)N(*)C(=O)C8C7)CC6C5=O)cc4)cc3)cc2)cc1` (repeat unit) stands 225.00 °C; under `*c1ccc(Oc2ccc(C(C)(C)c3ccc(Oc4ccc(N5C(=O)C6CCC7C(=O)N(*)C(=O)C7C6C5=O)cc4)cc3)cc2)cc1` (repeat unit), 263.50 °C; under `*c1ccc(Oc2ccc(C(c3ccccc3)(c3ccccc3)c3ccc(Oc4ccc(-c5nc(*)nc(-c6ccccc6)n5)cc4)cc3)cc2)cc1` (repeat unit), 261.00 °C.
To `*c1ccc(Oc2ccc(C3(c4ccc(Oc5ccc(-c6cccc(*)n6)cc5C(F)(F)F)cc4)c4ccccc4-c4ccccc43)cc2)c(C(F)(F)F)c1` (repeat unit) belongs 182.50 °C; to `*c1ccc(Oc2ccc(C3(c4ccc(Oc5ccc(-c6nnc(*)c7c(-c8ccc(F)cc8)c(-c8ccc(F)cc8)c(-c8ccc(F)cc8)c(-c8ccc(F)cc8)c67)cc5)cc4)c4ccccc4-c4ccccc43)cc2)cc1` (repeat unit), 321.00 °C.
Compound `*c1ccc(Oc2ccc(C3(c4ccc(Oc5ccc(-c6nnc(*)c7c(-c8ccccc8)c(-c8ccc9ccccc9c8)c(-c8ccc9ccccc9c8)c(-c8ccccc8)c67)cc5)cc4)c4ccccc4-c4ccccc43)cc2)cc1` (repeat unit) displayed a glass transition temperature of 334.00 °C.
For `*c1ccc(Oc2ccc(C3(c4ccc(Oc5ccc(N6C(=O)c7ccc(Oc8ccc(C9(c%10ccc(Oc%11ccc%12c(c%11)C(=O)N(*)C%12=O)cc%10)CCC(c%10ccccc%10)CC9)cc8)cc7C6=O)cc5)cc4)CCC(C(C)(C)C)CC3)cc2)cc1` (repeat unit), the glass transition temperature came out at 243.00 °C.
To `*c1ccc(Oc2ccc(N3C(=O)C(C)C(SCCOCCSC4C(=O)N(c5ccc(Oc6ccc(N7C(=O)CC(C)(SCCOCCSC8(C)CC(=O)N(*)C8=O)C7=O)cc6)cc5)C(=O)C4C)C3=O)cc2)cc1` (repeat unit) belongs 145.00 °C; to `*c1ccc(Oc2ccc(N3C(=O)c4c(c(-c5ccccc5)c(-c5ccc(-c6c(-c7ccccc7)c7c(c(-c8ccccc8)c6-c6ccccc6)C(=O)N(*)C7=O)cc5)c(-c5ccccc5)c4-c4ccccc4)C3=O)cc2)cc1` (repeat unit), 413.00 °C; to `*c1ccc(Oc2ccc(N3C(=O)c4c(c(-c5ccccc5)c(-c5ccc(Oc6ccc(-c7c(-c8ccccc8)c8c(c(-c9ccccc9)c7-c7ccccc7)C(=O)N(*)C8=O)cc6)cc5)c(-c5ccccc5)c4-c4ccccc4)C3=O)cc2)cc1` (repeat unit), 360.00 °C.
In turn, `*c1ccc(Oc2ccc(Oc3ccc(-c4ccc(Oc5ccc(Oc6ccc(C7(*)OC(=O)c8ccccc87)cc6)cc5)c5ccccc45)c4ccccc34)cc2)cc1` (repeat unit) registered a glass transition temperature of 198.00 °C.
`*c1ccc(Oc2ccc(Oc3ccc(-c4nc(*)nc(-c5ccccc5)n4)cc3)cc2)cc1` (repeat unit) showed a glass transition temperature of 244.00 °C.
`*c1ccc(Oc2ccc(Oc3ccc(-c4nnc(*)c5c(-c6ccc(F)cc6)c(-c6ccc(F)cc6)c(-c6ccc(F)cc6)c(-c6ccc(F)cc6)c45)cc3)cc2)cc1` (repeat unit) came in with a glass transition temperature of 309.00 °C.
In turn, `*c1ccc(Oc2ccc(Oc3ccc(Oc4ccc(-c5nc(*)nc(-c6ccccc6)n5)cc4)cc3)cc2)cc1` (repeat unit) displayed a glass transition temperature of 203.00 °C.
For `*c1ccc(Oc2ccc(Oc3ccc(P(=O)(c4ccccc4)c4ccc(Oc5ccc(Oc6ccc(-c7nc8cc9sc(*)nc9cc8s7)cc6)cc5)cc4)cc3)cc2)cc1` (repeat unit), the glass transition temperature was found to be 255.00 °C.
For the compound `*c1ccc(Oc2ccc(P(C)(=O)c3ccc(Oc4ccc(C5(*)OC(=O)c6ccccc65)cc4)cc3)cc2)cc1` (repeat unit), the glass transition temperature came out at 263.00 °C.
Consider `*c1ccc(Oc2ccc(S(=O)(=O)c3ccc(Oc4ccc(-c5c6c(c(*)c7ccccc57)C(=O)N(C)C6=O)cc4)cc3)cc2)cc1` (repeat unit), for which the glass transition temperature was 314.00 °C.
`*c1ccc(Oc2ccc(S(=O)(=O)c3ccc(Oc4ccc(-c5c6c(c(*)c7ccccc57)C(=O)N(CCCCCCCCCCCC)C6=O)cc4)cc3)cc2)cc1` (repeat unit) gave a glass transition temperature of 167.00 °C.
Compound `*c1ccc(Oc2ccc(S(=O)(=O)c3ccc(Oc4ccc(-c5c6c(c(*)c7ccccc57)C(=O)N(c5ccc(C(F)(F)F)cc5)C6=O)cc4)cc3)cc2)cc1` (repeat unit) showed a glass transition temperature of 290.00 °C.
The compound `*c1ccc(S(=O)(=O)c2ccc(Oc3ccc(-c4nn(*)c(=O)c5ccccc45)c(F)c3)cc2)cc1` (repeat unit) showed a glass transition temperature of 283.00 °C.
`*c1ccc2c(c1)C(=O)N(c1ccc(C(=O)Nc3ccc(Oc4ccc(C(C)(C)c5ccc(Oc6ccc(NC(=O)c7ccc(N8C(=O)c9ccc(C(*)(C(F)(F)F)C(F)(F)F)cc9C8=O)cc7)cc6)cc5)cc4)cc3)cc1)C2=O` (repeat unit) came in with a glass transition temperature of 266.00 °C.
In turn, `*c1ccc2c(c1)C(=O)N(c1cccc(C(=O)Nc3ccc(Oc4ccc(C(C)(C)c5ccc(Oc6ccc(NC(=O)c7cccc(N8C(=O)c9ccc(C(*)(C(F)(F)F)C(F)(F)F)cc9C8=O)c7)cc6)cc5)cc4)cc3)c1)C2=O` (repeat unit) displayed a glass transition temperature of 259.00 °C.
`*c1cccc(C(=O)Nc2ccc(Oc3ccc(C(C)(C)c4ccc(Oc5ccc(NC(=O)c6cccc(N7C(=O)c8ccc(-c9ccc%10c(c9)C(=O)N(*)C%10=O)cc8C7=O)c6)cc5)cc4)cc3)cc2)c1` (repeat unit) displayed a glass transition temperature of 257.00 °C.
